Measured values as given in patent US4211764A, “Gastric secretion stimulation with 2-amino-5-(2-aminoethyl)-1,3,4-thiadiozole” (priority 1978, dated 1980).
“Also recorded” adds a separate entry of the source. Read-outs that look alike come from different tables or passages of the source.

Key:
[1] = tested on: gastric secretion of patients; assay: Clinical comparison of thidazine with simple histamine test; format: in vivo, human; conditions: 20 patients; thidazine 1.5 mg/kg parenteral, histamine 0.01 mg/kg; >0.05
Source text: (§1) Special attention was paid to side effects and the reproductibility of the secretory response after repeated administrations of the drug.

[2] = tested on: H1 - and H2 -receptors; assay: Comparison of effects upon H1 - and H2 -receptors of different objects
Experimental: (§2) Changes in the heart rate were measured, dose-response curves were plotted, and pD2 values were calculated.

[3] = tested on: Bulbar Conjunctiva; parameters: species or system guinea pigs, rabbits; conditions: in vivo
Source text: C. Irritant Action of 1-5% Solutions On
intramuscular injection

[4] = tested on: arterial pressure; assay: Arterial pressure in anesthetized cats
Experimental: These experiments were performed on 11 cats weighing 2.5 to 4.0 kg and anesthetized with urethane-chlorazol mixture containing 60 mg/kg of chlorazol and 600 mg/kg of urethane. The arterial pressure was measured in the common carotid artery with the aid of a mercury pressure gauge.

[5] = molecular target: H2 -ceptors (Canis lupus familiaris, UniProt P17124); assay: Gastric secretion in dogs with gastric fistula, intramuscular injection
Experimental: (§3) Chronic experiments were performed on male dogs weighing 20 to 25 kg and having a gastric fistula; prior to experiments, the animals were starved for 18 hours.
The gastric juice was analyzed for titratable acidity and proteolytic activity. The hydrochloric acid output was calculated in milliequivalents (mEq) and that of pepsin in milligrams.

[6] = tested on: arterial pressure; assay: Arterial pressure in rabbits; conditions: intravenous, thidazine 0.1 mg/kg, equimolar doses of histamine and histalog
Experimental: In a series of experiments of 18 rabbits weighing 2.5 to 3.5 kg, each having the common carotid artery in a cutaneous flap, the preparations were injected intravenously.

[7] = tested on: Male guinea pigs; assay: Chronic toxicity, daily intravenous injections in guinea pigs; format: in vivo
Source text: Male guinea pigs weighing 200-250 g
1. Daily intravenous injections of thidazine

[8] = molecular target: T1, H2 -receptors (Cavia porcellus, UniProt P47747); assay: Heart rate of isolated auricles; conditions: isolated guinea pig auricles; read-out: pD2 value, H2 -receptors (heart rate) (converted)
T1 construct: from tissue; host or cells: isolated guinea pig auricles (atria)
Experimental: as §2

[9] = Acute toxicity, guinea pigs; conditions: guinea pig, in vivo, male guinea pigs
Source text: The results of the tests are generalized in Table 1.

[10] = tested on: male dogs; assay: Chronic toxicity, dogs per os; format: in vivo; conditions: for Bilirubin content / Glutamic-alanine transaminase content: 200 mg per os daily, Test
Experimental: Three male dogs weighing 22 to 25 kg
1. Administration per os, 200 mg
(in gelatin capsules), admini-
stration performed once a day
during 10 days, one animal being

[11] = tested on: gastric secretion of patients with duodenal ulceration; assay: Clinical comparison in patients with duodenal ulceration; format: in vivo, human
Source text: as §1
Histamine and Pentagastrin Upon Main Gastric Secretion
Characteristics of Patients With Duodenal Ulceration

[12] = tested on: gastric secretion of patients of middle age group; assay: Clinical test: effects of maximum doses upon gastric secretion of patients; format: in vivo, human; conditions: 2mg/kg; for Gastric Juice, Δ% / HCl Concentration, Δ% / Hourly HCl output, Δ%: 2nd versus 1st hour
Source text: as §1

[13] = molecular target: T2, H1 -receptors (Cavia porcellus, UniProt P31389); assay: Contraction of isolated ileum; conditions: guinea pig ileum; read-out: pD2 value in relation to H1 -receptors (converted)
T2 construct: from tissue; host or cells: isolated guinea pig ileum

[14] = tested on: dog's stomach; assay: Gastric secretion in dogs, administration per os; format: in vivo
Experimental: as §3

[15] = tested on: male rabbits; conditions: rabbit, in vivo
Experimental: | D. Allergic Action | (Arthus-Sakharov Phenomenon) | Daily injections to male rabbits | weighing 3.0 kg, during 6 to 7 days: | test group, hypodermic injections of | 0.1 ml of 1% solution | control group, injections of 0.1 ml | of normal horse serum

[16] = tested on: total acidity; assay: Clinical reproducibility of secretory response (total acidity); format: in vivo, human
Source text: as §1
Reproducibility of Secretory Response to Introduction
of Thidazine and Histamine with Reference to Total
Acidity Values (each group of patients includes 10 persons)
^(x) Percentage of difference is the relationship of the difference
between the total acidity values registered in the first and second tests
of a patient to the greater of these values.

[17] = tested on: gastric secretion; format: in vivo, human
Source text: as §1
The clinical investigation also helped to determine effective doses of the proposed preparation for submaximum and maximum tests and different forms of administration.

[18] = 20 mg/kg i/v daily 10 days, beginning of experiment
[19] = 20 mg/kg i/v daily 10 days, end of experiment
[20] = hypodermic, 1st hour (basal secretion)
[21] = hypodermic, 2nd hour (response to drug)
[22] = per os, 1st hour (basal secretion)
[23] = per os, 2nd hour (response to drug)

Chain of H2 -ceptors (P17124 whole entry): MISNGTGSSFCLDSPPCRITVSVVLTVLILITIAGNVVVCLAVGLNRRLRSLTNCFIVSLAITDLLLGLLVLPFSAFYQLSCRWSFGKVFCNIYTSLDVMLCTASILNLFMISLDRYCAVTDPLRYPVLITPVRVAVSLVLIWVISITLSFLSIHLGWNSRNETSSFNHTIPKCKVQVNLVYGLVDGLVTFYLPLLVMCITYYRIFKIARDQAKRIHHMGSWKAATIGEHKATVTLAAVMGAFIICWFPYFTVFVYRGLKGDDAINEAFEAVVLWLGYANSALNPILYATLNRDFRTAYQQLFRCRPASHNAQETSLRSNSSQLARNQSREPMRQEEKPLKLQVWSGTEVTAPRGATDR
T2 sequence (P31389 whole entry): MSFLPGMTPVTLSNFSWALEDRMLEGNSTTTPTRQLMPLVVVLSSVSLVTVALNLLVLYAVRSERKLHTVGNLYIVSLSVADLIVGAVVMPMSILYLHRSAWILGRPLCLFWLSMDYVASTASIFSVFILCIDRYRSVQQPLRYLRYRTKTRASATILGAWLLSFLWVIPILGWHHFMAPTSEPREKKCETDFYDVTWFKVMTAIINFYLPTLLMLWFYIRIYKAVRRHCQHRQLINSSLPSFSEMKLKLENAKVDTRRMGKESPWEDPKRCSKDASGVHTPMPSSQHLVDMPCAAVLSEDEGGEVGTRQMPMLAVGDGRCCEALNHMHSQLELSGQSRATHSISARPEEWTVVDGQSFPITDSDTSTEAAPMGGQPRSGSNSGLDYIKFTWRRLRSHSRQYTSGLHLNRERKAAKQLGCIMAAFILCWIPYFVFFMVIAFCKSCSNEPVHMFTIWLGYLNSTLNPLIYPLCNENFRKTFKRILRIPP
T1 sequence (P47747 whole entry): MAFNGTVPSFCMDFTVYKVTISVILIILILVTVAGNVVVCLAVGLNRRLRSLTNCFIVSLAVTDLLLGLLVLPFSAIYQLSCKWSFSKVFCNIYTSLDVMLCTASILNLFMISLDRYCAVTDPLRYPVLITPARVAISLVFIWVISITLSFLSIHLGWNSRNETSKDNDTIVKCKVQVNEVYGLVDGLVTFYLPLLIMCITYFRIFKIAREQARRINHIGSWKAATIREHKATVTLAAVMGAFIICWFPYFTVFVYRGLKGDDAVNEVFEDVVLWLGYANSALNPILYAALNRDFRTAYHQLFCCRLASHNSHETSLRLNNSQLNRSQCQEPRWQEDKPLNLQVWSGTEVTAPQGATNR

NCCc1nnc(N)s1 [Thidazine, 2-amino-5-(2-aminoethyl)-1,3,4-thiadiazole]
Free Acidity [1]: 77.0+20 units | HCl Output [1]: 12.2 ± 0.7 milliequivalents per hour | Peak HCl Output [1]: 8.9+0.3 milliequivalents | Total Acidity [1]: 90.3+22 units | action upon H2 -receptors compared with H1 -receptors [2]: the action of thidazine upon H2 -receptors is stronger than its action upon H1 -receptors | Irritant Action [3]: Negative reaction | reduction of arterial pressure ([4]; anesthetized cats, 0.1 mg/kg intravenous): 30 mm of mercury | hypotensive reaction ([4]; cats, doses below 0.1 mg/kg intravenous): No hypotensive reaction was observed | production of maximum level of hydrochloric acid secretion in the stomach ([5]; animal (dog)): can produce a maximum level of hydrochloric acid secretion in the stomach of a dog | effect upon arterial pressure, heart rate and general behavior ([5]; dog, 3 mg/kg (maximum secretion dose)): no significant effect | maximum dose ([5]; dogs, intramuscular): 3.0 mg/kg | maximum hourly output of hydrochloric acid ([5]; dogs, intramuscular): 24 mEq per hour | maximum hourly output of pepsin ([5]; dogs, intramuscular): 110 mg per hour | minimum active dose ([5]; dogs, intramuscular): 0.05 mg/kg | reduction of arterial pressure [6]: 12 mm of mercury | Coagulability of Blood ([7]; 20 mg/kg i/v daily 10 days): No changes | Differential Blood Count ([7]; 20 mg/kg i/v daily 10 days): No significant changes | ECG at beginning and end of experiment ([7]; 20 mg/kg i/v daily 10 days): No significant changes | Average weight in test group ([7]; 20 mg/kg i/v daily 10 days, Control Period (beginning)): 220.0 ± 58 g | Average weight in test group ([7]; 20 mg/kg i/v daily 10 days, Test Period (end)): 252.3 ± 50 g | ESR, test group [7, 18]: 2 mm | Erythrocytes, test group [7, 18]: 3.75 ± 0.1 mln. | Hemoglobin, test group [7, 18]: 11.8 ± 0.1% | Leukocytes, test group [7, 18]: 11360 ± 900 thous. | ESR, test group [7, 19]: 2 mm | Erythrocytes, test group [7, 19]: 3.93 ± 0.1 mln. | Hemoglobin, test group [7, 19]: 12.4 ± 0.3% | Leukocytes, test group [7, 19]: 9500 ± 835 thous. | effect upon growth and development and blood composition ([7]; two animal species, 1/10 LD50): no significant effect | pathological changes in the vital organs ([7]; two animal species, 1/10 LD50): causes no pathological changes in the vital organs | EC50 [8]: 7.94 µM | LD50 ([9]; ip, 280-350 g, i/p): 360 mg/kg | LD50 ([9]; iv, 200-250 g, i/v): 190 mg/kg | Behavior, food reflexes ([10]; 200 mg per os daily 10 days): No changes | Bilirubin content ([10]; 5th day): 0.15 mg% | Glutamic-alanine transaminase content ([10]; 5th day): 30 units | Bilirubin content ([10]; 10th day): 0.15 mg% | Glutamic-alanine transaminase content ([10]; 10th day): 32 units | Bilirubin content ([10]; at beginning): 0.16 mg% | Glutamic-alanine transaminase content ([10]; beginning): 30 units | Histological Examination of Internal Organs ([10]; dog, in vivo): No microscopic changes | Urinalysis: volume, specific weight, protein, microscopy of urinary sediment ([10]; dog, in vivo): No significant changes | Chymosin Output ([11]; 1st hour (basal secretion)): 17.3 ± 0.3 units per hour | Pepsin Output ([11]; 1st hour (basal secretion)): 4.0 ± 0.7 units per hour | Secretion, milliequivalents per hour ([11]; 1st hour (basal secretion)): 7.25 ± 0.9 Milliequivalents per hour | Chymosin Output ([11]; 2nd hour): 218.2 ± 4.0 units per hour | Pepsin Output ([11]; 2nd hour): 17.8 ± 2.3 units per hour | Secretion, milliequivalents per hour ([11]; 2nd hour): 23.9 ± 1.8 Milliequivalents per hour | Gastric Juice [12, 20]: 87.0 ml per hour | HCl Concentration [12, 20]: 43.9 milliequivalents per liter | Gastric Juice [12, 21]: 200.5 ml per hour | HCl Concentration [12, 21]: 100.8 milliequivalents per liter | Gastric Juice, Δ% ([12]; hypodermic): +130.5% | HCl Concentration, Δ% ([12]; hypodermic): +129.6% | Hourly HCl output, Δ% ([12]; hypodermic): +471.9% | Hourly HCl output ([12]; hypodermic, 11 observations, 1st hour (basal secretion)): 8.2 milliequivalents per hour | Hourly HCl output ([12]; hypodermic, 11 observations, 2nd hour (response to drug)): 18.3 milliequivalents per hour | Gastric Juice [12, 22]: 102.1 ml per hour | HCl Concentration [12, 22]: 33.3 milliequivalents per liter | Gastric Juice [12, 23]: 227.9 ml per hour | HCl Concentration [12, 23]: 103.2 milliequivalents per liter | Gastric Juice, Δ% ([12]; per os): +123% | HCl Concentration, Δ% ([12]; per os): +209.9% | Hourly HCl output, Δ% ([12]; per os): +402.3% | Hourly HCl output ([12]; per os, 13 observations, 1st hour (basal secretion)): 4.3 milliequivalents per hour | Hourly HCl output ([12]; per os, 13 observations, 2nd hour (response to drug)): 21.6 milliequivalents per hour | EC50 [13]: 398 µM | maximum level of gastric secretion ([14]; per os, 100 mg per head): 26 mEq per hour | gastric secretion after administration per os ([14]; thidazine 100 mg per head (parenterally and per os), histamine 10 and 20 mg, histalog 50 and 100 mg): can produce a maximum secretory effect when administered both parenterally and per os; also recorded: can produce a maximum secretion in a dog's stomach when administered both parenterally and perorally | Allergic Action (Arthus-Sakharov Phenomenon) [15]: Negative reaction | % of difference (fluctuations) of total acidity, first and second tests ([16]; 0.7 mg/kg hypodermic): 15-42% | Average difference of total acidity ([16]; 0.7 mg/kg hypodermic): 31% | % of difference (fluctuations) of total acidity, first and second tests ([16]; 1.5mg/kg per os): 0-22% | Average difference of total acidity ([16]; 1.5mg/kg per os): 7.5% | dose for maximum secretion test ([17]; hypodermic or intramuscular): 1.6 mg/kg | dose for submaximum secretion test ([17]; hypodermic or intramuscular): 0.8 mg/kg | secretory activity compared with histamine and pentagastrin ([17]; patients, adequate doses): close to histamine and pentagastrin | effectiveness per os compared with parenteral ([17]; patients, tablets or solutions): as effectively as parenterally | dose for maximum secretion test ([17]; per os): 2.0 mg/kg | dose for submaximum secretion test ([17]; per os): 1.5 mg/kg
